Laboratory results reported in US9505780B2, “Thienopyranones as kinase and epigenetic inhibitors” (SignalRx Pharmaceuticals, Inc., priority 2014, dated 2016).

How the values were obtained:
[1] = biological target: BRD4-1 (Homo sapiens (Human), UniProt O60885); assay: BRD4 region 1 (BRD4-1) inhibition; assay type: biochemical
[2] = biological target: BRD4-2 (Homo sapiens (Human), UniProt O60885); assay: BRD4 region 2 (BRD4-2) inhibition; assay type: biochemical
[3] = biological target: PI3Kβ (Homo sapiens (Human), UniProt P42338); assay: PI3K beta isoform inhibition; assay type: biochemical
[4] = biological target: PI3Kδ (Homo sapiens (Human), UniProt O00329); assay: PI3K delta isoform inhibition; assay type: biochemical
Description: Inhibitory activity can be determined routinely using known methods and also front commercial vendors offering this service for kinases and bromodomain proteins. […] In vivo, PI3K inhibition can be determined from target tissue biopsies by standard tissue processing to disrupt cells and then performing Western Blot analysis to determine the presence or absence of pAKT (substrate of PI3K) relative to a control sample. The activity of a compound of the invention as an inhibitor of a bromodomain-containing protein, such as a BET protein, such as BRD2, BRD3, BRD4, and/or BRDT, or an isoform or mutant thereof may be determined in vitro, in vivo, or in a cell line. In vitro assays include assays that determine inhibition of bromodomain-containing proteins. Alternatively, inhibitor binding may be determined by running a competition experiment where a provided compound is incubated with a bromodomain-containing protein, such as a BET protein bound to known ligands, labeled or unlabeled. For example, bromodomain inhibition can be determined in vitro using Alpha Screen Technology (http://www.reactionbiology.com/webapps/site/NewsPDFs/Bromodomain%20Assay%20Platform%20for%20Drug%/20Screening%20and%20Discovery.pdf). In vivo bromodomain inhibition can be determined indirectly by evaluating the amount of protect present of proteins whose genes' transcription is influenced or controlled by the bromodomain protein, for example, the MYCN protein transcription is controlled by BRD4 (J. E. Delmore et al., Cell 2011, 146, 904-917; A. Puissant, Cancer Discov. 2013, 3, 308-323). Bromodomain inhibition may also be predicted by in silico modeling as described below in the Examples.
Several TP Scaffold compounds (structures shown in FIG. 2 and Table 3) were tested for inhibition activity against isoforms of PI3K (alpha, beta, gamma, and delta isoforms) and the bromodomain protein BRD4 at regions 1 (BRD4-1) and 2 (BRD4-2).

[5] = biological target: PI3Kγ (Homo sapiens (Human), UniProt P48736); assay: PI3K gamma isoform inhibition; assay type: biochemical
[6] = system: SKNBE (2) cells; assay: Western blot of p-AKT and N-MYC in SKNBE(2) cells; assay type: cell-based, human; conditions: 24 hrs treatment, IGF stimulated
Protocol: Cells were stimulated with 50 ng/ml IGF for 30 min and used for lysate preparation. Proteins were quantitated by the BCA protein assay (Pierce). Equal amounts of protein were resolved by polyacrylamide gels, transferred to nitrocellulose membrane and probed by Western blot with the following primary antibodies: p-AKT(Ser473), API (Cell Signaling Technologies), N-MYC, CyclinD1 and β-actin (Santa Cruz Biotechnology).

[7] = system: MYCN amplified SKNBE(2) cells; assay: Brd4 chromatin precipitation, quantitative PCR of MYCN promoter region; assay type: cell-based, human; conditions: 24 hours exposure
Protocol: MYCN amplified SKNBE(2) cells were exposed to inhibitors for 24 hours then chromatin was precipitated with Brd4 (rabbit polyclonal antibody) along with rabbit IgG as a negative control (IgG). Precipitated chromatin was analyzed for the MYCN gene (2 sites within the MYCN promoter region) by quantitative PCR and enrichment is shown as the percentage of total input DNA (FIG. 4). The negative control region primers amplify within a gene desert region approximately 1 Mb away from MYCN (MYC-N NR). Error bars represent ±SEM of triplicate data. P<0.05 as compared to positive control (paired t-test). Positive control: No inhibitor; IP with BRD4 antibody, Negative Control: No inhibitor, IP with rabbit IgG.

[8] = biological target: PI3Kα (Homo sapiens (Human), UniProt P42336); assay: PI3K alpha isoform inhibition; assay type: biochemical
[9] = system: HDAC; assay: HDAC inhibitory activity, commercially available kit; assay type: biochemical; conditions: for HDAC inhibitory activity: 1, 10, 50 μM
[10] = system: PI-3 kinases; conditions: cited from earlier work
[11] = system: breast cancer stem cells; conditions: decreased from 11%; tumors with high HER2; cited from earlier work
[12] = biological target: BRD4 (Homo sapiens, UniProt O60885); assay: BRD4 inhibition assay (region not distinguished); assay type: biochemical; conditions: for BRD4 inhibition: BRD4 regions 1 and 2

Sequence of PI3Kδ (O00329 whole entry, canonical isoform): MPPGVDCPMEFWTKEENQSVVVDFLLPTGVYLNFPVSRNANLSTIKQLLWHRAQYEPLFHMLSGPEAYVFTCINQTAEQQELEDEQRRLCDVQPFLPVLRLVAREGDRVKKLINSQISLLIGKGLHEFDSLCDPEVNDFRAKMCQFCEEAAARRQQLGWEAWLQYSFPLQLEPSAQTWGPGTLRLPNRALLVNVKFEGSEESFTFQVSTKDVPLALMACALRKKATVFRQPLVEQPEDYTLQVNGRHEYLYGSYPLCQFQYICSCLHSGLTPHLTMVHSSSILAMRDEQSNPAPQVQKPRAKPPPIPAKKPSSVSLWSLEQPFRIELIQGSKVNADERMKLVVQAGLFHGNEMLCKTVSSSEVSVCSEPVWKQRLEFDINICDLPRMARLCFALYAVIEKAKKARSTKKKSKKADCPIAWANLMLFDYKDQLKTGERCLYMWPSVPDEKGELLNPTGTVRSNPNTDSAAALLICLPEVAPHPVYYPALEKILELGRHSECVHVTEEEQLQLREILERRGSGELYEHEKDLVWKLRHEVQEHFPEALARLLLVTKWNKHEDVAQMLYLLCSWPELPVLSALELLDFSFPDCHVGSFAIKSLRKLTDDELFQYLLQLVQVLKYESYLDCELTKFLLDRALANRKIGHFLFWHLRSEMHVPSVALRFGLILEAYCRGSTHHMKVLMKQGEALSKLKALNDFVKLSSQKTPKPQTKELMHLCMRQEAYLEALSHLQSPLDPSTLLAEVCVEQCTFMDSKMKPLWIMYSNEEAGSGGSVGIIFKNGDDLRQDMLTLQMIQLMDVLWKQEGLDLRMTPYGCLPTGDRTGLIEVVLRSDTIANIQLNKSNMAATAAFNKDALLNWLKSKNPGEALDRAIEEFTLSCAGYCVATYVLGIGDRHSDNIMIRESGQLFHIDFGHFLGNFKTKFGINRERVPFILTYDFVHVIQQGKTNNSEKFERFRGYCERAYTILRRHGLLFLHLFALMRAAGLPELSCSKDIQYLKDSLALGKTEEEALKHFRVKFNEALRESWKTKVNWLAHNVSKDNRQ
Sequence of PI3Kδ (P27986 whole entry partner, canonical isoform): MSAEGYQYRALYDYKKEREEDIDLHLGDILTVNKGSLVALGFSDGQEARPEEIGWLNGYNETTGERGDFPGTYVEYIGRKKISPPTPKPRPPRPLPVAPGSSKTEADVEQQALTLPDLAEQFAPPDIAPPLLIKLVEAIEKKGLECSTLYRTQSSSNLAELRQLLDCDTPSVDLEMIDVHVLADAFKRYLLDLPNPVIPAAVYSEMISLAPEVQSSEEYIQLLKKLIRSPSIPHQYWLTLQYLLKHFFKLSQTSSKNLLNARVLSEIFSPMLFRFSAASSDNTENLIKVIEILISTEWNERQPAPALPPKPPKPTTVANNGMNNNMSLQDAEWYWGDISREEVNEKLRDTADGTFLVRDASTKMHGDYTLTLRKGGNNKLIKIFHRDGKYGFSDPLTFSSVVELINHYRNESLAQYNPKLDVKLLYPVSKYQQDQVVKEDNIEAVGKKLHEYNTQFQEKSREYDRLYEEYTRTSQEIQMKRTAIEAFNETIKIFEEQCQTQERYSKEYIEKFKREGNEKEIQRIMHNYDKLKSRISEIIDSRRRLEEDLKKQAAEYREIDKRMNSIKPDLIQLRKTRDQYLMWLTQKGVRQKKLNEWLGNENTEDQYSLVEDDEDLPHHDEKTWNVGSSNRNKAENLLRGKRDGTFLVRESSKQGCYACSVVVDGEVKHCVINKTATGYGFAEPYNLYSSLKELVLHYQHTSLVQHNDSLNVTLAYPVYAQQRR
Sequence of PI3Kγ (P48736 whole entry, canonical isoform): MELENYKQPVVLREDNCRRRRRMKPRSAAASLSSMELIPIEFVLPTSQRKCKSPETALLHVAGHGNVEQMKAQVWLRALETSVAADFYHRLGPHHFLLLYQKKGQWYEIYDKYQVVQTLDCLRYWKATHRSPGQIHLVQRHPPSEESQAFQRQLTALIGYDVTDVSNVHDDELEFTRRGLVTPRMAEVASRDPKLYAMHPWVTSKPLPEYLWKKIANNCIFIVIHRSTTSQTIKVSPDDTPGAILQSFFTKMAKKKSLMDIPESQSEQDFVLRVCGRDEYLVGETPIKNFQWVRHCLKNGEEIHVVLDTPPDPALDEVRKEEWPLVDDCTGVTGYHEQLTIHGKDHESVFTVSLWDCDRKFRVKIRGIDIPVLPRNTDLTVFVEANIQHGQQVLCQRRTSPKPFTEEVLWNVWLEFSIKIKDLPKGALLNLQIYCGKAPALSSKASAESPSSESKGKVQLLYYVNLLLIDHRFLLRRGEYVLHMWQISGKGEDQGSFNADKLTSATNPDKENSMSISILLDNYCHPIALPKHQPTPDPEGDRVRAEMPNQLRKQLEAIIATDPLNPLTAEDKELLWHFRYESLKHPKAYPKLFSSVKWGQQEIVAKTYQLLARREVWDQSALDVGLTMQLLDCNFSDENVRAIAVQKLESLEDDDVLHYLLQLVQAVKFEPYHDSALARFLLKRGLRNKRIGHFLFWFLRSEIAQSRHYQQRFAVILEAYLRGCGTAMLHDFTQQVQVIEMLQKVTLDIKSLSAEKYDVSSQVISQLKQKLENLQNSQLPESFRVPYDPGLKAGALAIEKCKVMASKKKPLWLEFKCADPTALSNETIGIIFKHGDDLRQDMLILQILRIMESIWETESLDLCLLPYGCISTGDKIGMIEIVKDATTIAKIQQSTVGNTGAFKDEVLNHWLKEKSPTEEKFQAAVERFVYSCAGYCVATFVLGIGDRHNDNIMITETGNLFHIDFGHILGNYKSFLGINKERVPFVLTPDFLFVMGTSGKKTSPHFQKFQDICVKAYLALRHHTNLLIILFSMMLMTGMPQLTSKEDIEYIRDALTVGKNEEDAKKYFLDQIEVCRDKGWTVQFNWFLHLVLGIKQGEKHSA
Sequence of PI3Kα (P42336 whole entry, canonical isoform): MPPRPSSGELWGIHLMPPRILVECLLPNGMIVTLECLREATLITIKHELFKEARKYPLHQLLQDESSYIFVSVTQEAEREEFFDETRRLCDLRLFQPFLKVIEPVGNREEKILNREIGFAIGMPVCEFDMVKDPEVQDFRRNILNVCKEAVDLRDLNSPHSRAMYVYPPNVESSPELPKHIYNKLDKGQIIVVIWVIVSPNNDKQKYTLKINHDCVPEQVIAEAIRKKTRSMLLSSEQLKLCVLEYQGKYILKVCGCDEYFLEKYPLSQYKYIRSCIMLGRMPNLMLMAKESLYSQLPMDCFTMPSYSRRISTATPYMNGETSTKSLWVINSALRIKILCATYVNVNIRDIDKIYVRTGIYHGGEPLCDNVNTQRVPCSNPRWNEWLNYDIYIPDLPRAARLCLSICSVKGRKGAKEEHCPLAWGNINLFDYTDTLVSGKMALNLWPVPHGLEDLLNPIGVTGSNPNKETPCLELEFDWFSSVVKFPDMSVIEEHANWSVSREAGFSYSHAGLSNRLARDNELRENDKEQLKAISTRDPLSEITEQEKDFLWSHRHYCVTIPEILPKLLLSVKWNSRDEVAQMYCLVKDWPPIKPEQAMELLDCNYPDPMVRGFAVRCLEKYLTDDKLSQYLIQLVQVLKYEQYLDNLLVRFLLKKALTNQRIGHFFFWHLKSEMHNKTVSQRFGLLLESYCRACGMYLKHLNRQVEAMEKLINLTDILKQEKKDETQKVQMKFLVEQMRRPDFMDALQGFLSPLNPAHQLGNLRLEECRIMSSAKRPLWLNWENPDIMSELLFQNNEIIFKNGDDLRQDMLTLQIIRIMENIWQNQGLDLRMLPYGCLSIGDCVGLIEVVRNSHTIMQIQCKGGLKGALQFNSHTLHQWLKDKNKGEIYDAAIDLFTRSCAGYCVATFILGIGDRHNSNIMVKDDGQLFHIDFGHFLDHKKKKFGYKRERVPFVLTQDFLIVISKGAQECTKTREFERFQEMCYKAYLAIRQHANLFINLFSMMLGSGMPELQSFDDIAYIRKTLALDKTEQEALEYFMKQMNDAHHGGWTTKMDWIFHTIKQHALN
Sequence of PI3Kα (P27986 whole entry partner, canonical isoform): as the sequence (P27986 whole entry partner, canonical isoform) above
Sequence of PI3Kβ (P42338 whole entry, canonical isoform): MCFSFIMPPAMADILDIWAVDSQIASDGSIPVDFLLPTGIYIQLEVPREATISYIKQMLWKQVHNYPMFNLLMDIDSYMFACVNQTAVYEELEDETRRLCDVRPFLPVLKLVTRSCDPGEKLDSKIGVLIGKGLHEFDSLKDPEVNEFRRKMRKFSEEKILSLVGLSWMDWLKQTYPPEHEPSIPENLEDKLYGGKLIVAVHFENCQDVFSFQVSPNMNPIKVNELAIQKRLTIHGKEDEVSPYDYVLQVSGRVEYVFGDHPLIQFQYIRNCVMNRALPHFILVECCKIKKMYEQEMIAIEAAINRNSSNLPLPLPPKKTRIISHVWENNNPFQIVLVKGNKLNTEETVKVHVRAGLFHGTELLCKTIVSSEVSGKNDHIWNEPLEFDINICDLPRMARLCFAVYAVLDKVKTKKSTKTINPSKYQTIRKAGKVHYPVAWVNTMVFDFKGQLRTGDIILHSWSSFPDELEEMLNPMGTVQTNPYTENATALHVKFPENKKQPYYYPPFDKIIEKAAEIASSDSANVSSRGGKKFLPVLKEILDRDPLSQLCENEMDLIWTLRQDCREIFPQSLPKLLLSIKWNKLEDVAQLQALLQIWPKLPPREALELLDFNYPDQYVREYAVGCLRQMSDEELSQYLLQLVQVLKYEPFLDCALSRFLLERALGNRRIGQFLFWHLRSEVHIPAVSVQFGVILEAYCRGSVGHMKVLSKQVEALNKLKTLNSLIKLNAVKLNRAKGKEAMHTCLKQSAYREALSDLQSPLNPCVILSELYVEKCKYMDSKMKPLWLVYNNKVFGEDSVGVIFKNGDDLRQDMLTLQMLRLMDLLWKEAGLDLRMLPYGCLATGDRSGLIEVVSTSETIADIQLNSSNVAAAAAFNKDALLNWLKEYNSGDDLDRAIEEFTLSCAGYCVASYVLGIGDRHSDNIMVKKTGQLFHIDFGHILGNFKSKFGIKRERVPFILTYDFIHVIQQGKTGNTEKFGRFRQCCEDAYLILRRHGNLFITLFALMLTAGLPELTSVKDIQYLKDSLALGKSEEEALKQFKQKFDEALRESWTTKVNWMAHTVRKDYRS
Sequence of PI3Kβ (P27986 whole entry partner, canonical isoform): as the sequence (P27986 whole entry partner, canonical isoform) above

Row | IC50 [1] [nM] | IC50 [2] [nM] | IC50 [4] [nM] | IC50 [5] [nM] | IC50 [8] [nM] | Compound | other results
1 | 558 | 1120 | – | – | – | CNC(=O)Nc1cccc(-c2csc3c(=O)cc(N4CCOCC4)oc23)c1 [Cmpd 133, 3-[m-(3-Methylureido)phenyl]-5-morpholino-4-oxa-1-thia-7-indenone] | –
2 | 231 | 446 | – | – | – | Cc1n[nH]c2cc(-c3csc4c(=O)cc(N5CCOCC5)oc34)ccc12 [Cmpd 131, 3-(3-Methyl-1H-indazol-6-yl)-5-morpholino-4-oxa-1-thia-7-Indenone] | –
3 | 349 | 695 | – | – | – | Cn1ncc2ccc(-c3csc4c(=O)cc(N5CCOCC5)oc34)cc21 [Cmpd 130, 3-(1-Methyl-1H-indazol-6-yl)-5-morpholino-4-oxa-1-thia-7-Indenone] | –
4 | 662 | 1850 | – | – | – | CN(C)C(=O)Nc1cccc(-c2csc3c(=O)cc(N4CCOCC4)oc23)c1 [Cmpd 134, 3-[m-(3-Dimethylureido)phenyl]-5-morpholino-4-oxa-1-thia-7-indenone] | –
5 | 646 | 1270 | – | – | – | Cc1cccc(NC(=O)Nc2cccc(-c3csc4c(=O)cc(N5CCOCC5)oc34)c2)c1 [Cmpd 135, 5-Morpholino-3-{m-[3-(m-tolyl)ureido]phenyl}-4-oxa-1-thia-7-indenone] | –
6 | 32600 | 34200 | 3300 | 9770 | 1720 | O=c1cc(N2CCSCC2)oc2c(Br)csc12 [Cmpd 127, 3-Bromo-5-thiomorpholino-7H-thieno[3,2-b]pyran-7-one] | –
7 | > 50000 | > 50000 | 1480 | 2200 | – | O=c1cc(N2CCOCC2)oc2c(Br)csc12 [Cmpd 126, 3-Bromo-5-morpholin-4-yl-thieno[3,2-b]pyran-7-one] | –
8 | 4000 | 10700 | – | – | – | O=c1cc(N2CCOCC2)oc2c(C#Cc3ccccc3)csc12 [Cmpd 128] | –
9 | 2230 | 9410 | – | – | – | O=c1cc(N2CCOCC2)oc2c(-c3ccn[nH]3)csc12 [Cmpd 129, 5-Morpholino-3-(2H-pyrazol-3-yl)-4-oxa-1-thia-7-Indenone] | –
10 | 6150 | 1260 | – | – | – | O=C(Nc1cccc(-c2csc3c(=O)cc(N4CCOCC4)oc23)c1)Nc1cccc(C(F)(F)F)c1 [Cmpd 136] | –
11 | 748 | 1260 | – | – | – | Cc1ccc(C)c(NC(=O)Nc2cccc(-c3csc4c(=O)cc(N5CCOCC5)oc34)c2)c1 [Cmpd 137, 5-Morpholino-3-{m-[3-(2,5-xylyl)ureido]phenyl}-4-oxa-1-thia-7-indenone] | –

More lines, now with the values behind:

Row | Compound | IC50 [1] [nM] | IC50 [2] [nM] | IC50 [4] [nM] | IC50 [5] [nM] | IC50 [8] [nM] | other results
12 | O=c1cc(N2CCOCC2)oc2c(-c3ccccc3)csc12 [Cmpd 6] | 2170 | 3450 | 784 | 1570 | – | IC50 [3]: 378 nM
13 | O=c1cc(N2CCNCC2)oc2c(-c3ccccc3)cccc12 [LY303511] | – | – | – | – | – | MYCN protein quantity, Western blot [6]: inhibited only MYCN quantities; MYCN expression (Brd4 ChIP, MYCN promoter) [7]: significantly repressed MYCN expression
14 | O=c1cc(N2CCOCC2)oc2ccsc12 [Cmpd 10] | > 50000 | > 50000 | > 50000 | > 50000 | 7160 | IC50 [3]: 9250 nM
15 | O=C(NO)c1ccc(-c2csc3c(=O)cc(N4CCOCC4)oc23)cc1 [Cmpd 118] | 193 | 235 | 53 | 806 | 90 | HDAC activity inhibited versus control ([9]; 1 μM): 17%; HDAC activity inhibited versus control ([9]; 10 μM): 25%; HDAC activity inhibited versus control ([9]; 50 μM): 41%; HDAC inhibitory activity [9]: significant HDAC inhibitory activity
16 | O=c1cc(N2CCOCC2)oc2c(-c3ccccc3)cccc12 [LY294002, 2-(4-morpholinyl)-8-phenyl-4H-1-benzopyran-4-one] | 5330 | 13100 | 3220 | – | – | MYCN protein quantity, Western blot [6]: decreased; pAKT, Western blot [6]: decreased; MYCN expression (Brd4 ChIP, MYCN promoter) [7]: significantly repressed MYCN expression; IC50 [10]: 1400 nM
17 | O=C(Nc1ccc(-c2csc3c(=O)cc(N4CCOCC4)oc23)cc1)c1ccc(F)c(F)c1Nc1ccc(I)cc1F [Cmpd 121] | 255 | 2310 | – | – | < 10000 | –
18 | CS(=O)(=O)CCNCc1ccc(-c2ccc3ncnc(Nc4ccc(OCc5cccc(F)c5)c(Cl)c4)c3c2)o1 [Lapatinib] | – | – | – | – | – | breast cancer stem cells, % of cells after treatment [11]: 5%
19 | CC[C@H](Nc1ncnc2[nH]cnc12)c1nc2cccc(F)c2c(=O)n1-c1ccccc1 [CAL101] | – | – | – | – | – | IC50 [12]: > 50000 nM; BRD4 inhibition [12]: no BRD4 inhibition; pAKT, Western blot [6]: decreased pAKT
20 | Nc1cc(C(F)(F)F)c(-c2cc(N3CCOCC3)nc(N3CCOCC3)n2)cn1 [BKM120] | – | – | – | – | – | BRD4 inhibition [12]: no BRD4 inhibition; pAKT, Western blot [6]: decreased pAKT
21 | O=C(Nc1cccc(-c2csc3c(=O)cc(N4CCOCC4)oc23)c1)Nc1ccc(Cl)c(C(F)(F)F)c1 [Cmpd 123, 1-(4-Chloro-3-trifluoromethyl-phenyl)-3-[3-(5-morpholin-4-yl-7-oxo-7H-thieno[3,2-b]pyran-3-yl)-phenyl]-urea] | > 50000 | > 50000 | 9750 | > 16700 | 7670 | –
22 | O=c1cc(N2CCSCC2)oc2c(-c3ccc4c(c3)OCCO4)csc12 [Cmpd 124, 3-(2,3-Dihydrobenzo[b][1,4]dioxan-6-yl)-5-thiomorpholino-7H-thieno[3,2-b]pyran-7-one] | 519 | 2800 | 480 | 4630 | 1580 | –
23 | COC(=O)c1ccc(-c2csc3c(=O)cc(N4CCOCC4)oc23)cc1 [Cmpd 44, methyl 4-(5-morpholino-7-oxo-7H-thieno[3,2-b]pyran-3-yl)benzoate] | 811 | 1470 | 12 | 547 | – | IC50 [3]: 3600 nM; BRD4 inhibition [12]: showed activity; HDAC inhibitory activity [9]: No inhibitor activity
24 | CCOC(=O)c1ccc(-c2csc3c(=O)cc(N4CCOCC4)oc23)cc1 [Cmpd 25] | 277 | 628 | 27 | 1170 | – | IC50 [3]: 1750 nM
25 | Nc1cccc(-c2csc3c(=O)cc(N4CCOCC4)oc23)c1 [Cmpd 11, 3-(3-Amino-phenyl)-5-morpholin-4-yl-thieno[3,2-b]pyran-7-one] | 843 | 1740 | 9810 | 6300 | – | –
26 | O=C(Nc1ccc(-c2csc3c(=O)cc(N4CCOCC4)oc23)cc1)c1ccncc1 [Cmpd 120] | 326 | 393 | 21 | 556 | 95 | –
27 | Cn1c(=O)n(-c2ccc(C(C)(C)C#N)cc2)c2c3cc(-c4cnc5ccccc5c4)ccc3ncc21 [BEZ235] | – | – | – | – | – | pAKT, Western blot [6]: decreased pAKT
28 | CC(C)(C)c1cc(NC(=O)Nc2cccc(-c3csc4c(=O)cc(N5CCOCC5)oc34)c2)no1 [Cmpd 122, 1-(5-tert-Butyl-isoxazol-3-yl)-3-[3-(5-morpholin-4-yl-7-oxo-7H-thieno[3,2-b]pyran-3-yl)-phenyl]-urea] | 2570 | 4880 | 1350 | 8650 | 950 | –
29 | O=C(O)c1ccc(-c2csc3c(=O)cc(N4CCOCC4)oc23)cc1 [Cmpd 100] | 1090 | 2760 | 295 | 259 | 55.2 | –
